{"source": "patent US20180110754A1", "about": "“CENICRIVIROC FOR THE TREATMENT OF FIBROSIS” (Tobira Therapeutics, Inc., priority 2015, published 2018)", "details": "for SAE: Suicidal ideation, n subjects: through Week 48", "source_text": "Subjects with a history of HIV-2, hepatitis B and/or C, cirrhosis of the liver or any known active or chronic active liver disease were excluded from the study.\nMost AEs were mild or moderate (Grade 1 or Grade 2). […] None of the Grade ≥3 AEs (preferred terms) were reported in more than 1 subject.", "note": "Where two headings read alike, the source gives them in different places."}
{"molecule": "CCCCOCCOc1ccc(-c2ccc3c(c2)/C=C(/C(=O)Nc2ccc([S@@+]([O-])Cc4cncn4CCC)cc2)CCCN3CC(C)C)cc1", "note": "[CVC, (S)-8-[4-(2-Butoxyethoxy)phenyl]-1-isobutyl-N-(4-{[(1-propyl-1H-imidazol-5-yl)methyl]sulfinyl}phenyl)-1,2,3,4-tetrahydro-1-benzazocine-5-carboxamide]", "values": [{"measurement": "Grade 3 or 4 AE: Blindness unilateral, n subjects", "setting": "CVC 100 mg (N = 58)", "value": 0}, {"measurement": "Grade 3 or 4 AE: Blood creatine phosphokinase increased, n subjects", "setting": "CVC 100 mg (N = 58)", "value": 0}, {"measurement": "Grade 3 or 4 AE: Cardiac disorders, n subjects", "setting": "CVC 100 mg (N = 58)", "value": 1}, {"measurement": "Grade 3 or 4 AE: Corneal infection, n subjects", "setting": "CVC 100 mg (N = 58)", "value": 0}, {"measurement": "Grade 3 or 4 AE: Suicidal ideation, n subjects", "setting": "CVC 100 mg (N = 58)", "value": 0}, {"measurement": "SAE: Suicidal ideation, n subjects", "setting": "CVC 100 mg (N = 58)", "value": 0}, {"measurement": "Any AE, n subjects", "setting": "CVC 200 mg (N = 57)", "value": 48}, {"measurement": "Any Grade 3 AE, n subjects", "setting": "CVC 200 mg (N = 57)", "value": 3}, {"measurement": "Any Grade 4 AE, n subjects", "setting": "CVC 200 mg (N = 57)", "value": 0}, {"measurement": "Deaths", "setting": "CVC 200 mg (N = 57)", "value": 0, "unit": "n"}, {"measurement": "Grade 3 or 4 AE: Abdominal pain, n subjects", "setting": "CVC 200 mg (N = 57)", "value": 0}, {"measurement": "Grade 3 or 4 AE: Blindness unilateral, n subjects", "setting": "CVC 200 mg (N = 57)", "value": 1}, {"measurement": "Grade 3 or 4 AE: Blood creatine phosphokinase increased, n subjects", "setting": "CVC 200 mg (N = 57)", "value": 1}, {"measurement": "Grade 3 or 4 AE: Cardiac disorders, n subjects", "setting": "CVC 200 mg (N = 57)", "value": 0}, {"measurement": "Grade 3 or 4 AE: Corneal infection, n subjects", "setting": "CVC 200 mg (N = 57)", "value": 1}, {"measurement": "Grade 3 or 4 AE: Suicidal ideation, n subjects", "setting": "CVC 200 mg (N = 57)", "value": 0}, {"measurement": "SAE: Suicidal ideation, n subjects", "setting": "CVC 200 mg (N = 57)", "value": 0}, {"measurement": "Grade 3 or 4 AE: Blood creatine phosphokinase increased, n subjects", "setting": "human, in vivo, 48 week", "value": 1}, {"measurement": "Grade 3 or 4 AE: Cardiac disorders, n subjects", "setting": "human, in vivo, 48 week", "value": 1}, {"measurement": "Grade 3 or 4 AE: Depression, n subjects", "setting": "human, in vivo, 48 week", "value": 0}, {"measurement": "Grade 3 or 4 AE: Ear and labyrinth disorders, n subjects", "setting": "human, in vivo, 48 week", "value": 0}, {"measurement": "Grade 3 or 4 AE: Investigations, n subjects", "setting": "human, in vivo, 48 week", "value": 1}, {"measurement": "Grade 3 or 4 AE: Palpitations, n subjects", "setting": "human, in vivo, 48 week", "value": 1}, {"measurement": "Grade 3 or 4 AE: Psychiatric disorders, n subjects", "setting": "human, in vivo, 48 week", "value": 1}, {"measurement": "Grade 3 or 4 AE: Stress, n subjects", "setting": "human, in vivo, 48 week", "value": 1}, {"measurement": "Grade 3 or 4 AE: Weight decreased, n subjects", "setting": "human, in vivo, 48 week", "value": 0}, {"measurement": "AE Abnormal dreams, n subjects", "setting": "human, in vivo, 48 weeks", "value": 9}, {"measurement": "AE Depression, n subjects", "setting": "human, in vivo, 48 weeks", "value": 3}, {"measurement": "AE Diarrhoea, n subjects", "setting": "human, in vivo, 48 weeks", "value": 17}, {"measurement": "AE Dizziness, n subjects", "setting": "human, in vivo, 48 weeks", "value": 11}, {"measurement": "AE Fatigue, n subjects", "setting": "human, in vivo, 48 weeks", "value": 14}, {"measurement": "AE Headache, n subjects", "setting": "human, in vivo, 48 weeks", "value": 16}, {"measurement": "AE Insomnia, n subjects", "setting": "human, in vivo, 48 weeks", "value": 7}, {"measurement": "AE Lymphadenopathy, n subjects", "setting": "human, in vivo, 48 weeks", "value": 7}, {"measurement": "AE Nasopharyngitis, n subjects", "setting": "human, in vivo, 48 weeks", "value": 10}, {"measurement": "AE Nausea, n subjects", "setting": "human, in vivo, 48 weeks", "value": 18}, {"measurement": "AE Rash, n subjects", "setting": "human, in vivo, 48 weeks", "value": 14}, {"measurement": "AE Syphilis, n subjects", "setting": "human, in vivo, 48 weeks", "value": 1}, {"measurement": "AE Upper respiratory tract infection, n subjects", "setting": "human, in vivo, 48 weeks", "value": 18}, {"measurement": "AE leading to discontinuation: Abnormal dreams, n subjects", "setting": "human, in vivo, 48 weeks", "value": 0}, {"measurement": "AE leading to discontinuation: Aggression, n subjects", "setting": "human, in vivo, 48 weeks", "value": 1}, {"measurement": "AE leading to discontinuation: Anxiety, n subjects", "setting": "human, in vivo, 48 weeks", "value": 0}, {"measurement": "AE leading to discontinuation: Depression, n subjects", "setting": "human, in vivo, 48 weeks", "value": 1}, {"measurement": "AE leading to discontinuation: Dermatitis allergic, n subjects", "setting": "human, in vivo, 48 weeks", "value": 0}, {"measurement": "AE leading to discontinuation: Disturbance in attention, n subjects", "setting": "human, in vivo, 48 weeks", "value": 0}, {"measurement": "AE leading to discontinuation: Dizziness, n subjects", "setting": "human, in vivo, 48 weeks", "value": 0}, {"measurement": "AE leading to discontinuation: Ear and labyrinth disorders, n subjects", "setting": "human, in vivo, 48 weeks", "value": 0}, {"measurement": "AE leading to discontinuation: Eye disorders, n subjects", "setting": "human, in vivo, 48 weeks", "value": 0}, {"measurement": "AE leading to discontinuation: Gastrointestinal disorders, n subjects", "setting": "human, in vivo, 48 weeks", "value": 0}, {"measurement": "AE leading to discontinuation: General disorders and administration site conditions, n subjects", "setting": "human, in vivo, 48 weeks", "value": 1}, {"measurement": "AE leading to discontinuation: Hypoaesthesia, n subjects", "setting": "human, in vivo, 48 weeks", "value": 0}, {"measurement": "AE leading to discontinuation: Insomnia, n subjects", "setting": "human, in vivo, 48 weeks", "value": 0}, {"measurement": "AE leading to discontinuation: Malaise, n subjects", "setting": "human, in vivo, 48 weeks", "value": 1}, {"measurement": "AE leading to discontinuation: Musculoskeletal and connective tissue disorders, n subjects", "setting": "human, in vivo, 48 weeks", "value": 0}, {"measurement": "AE leading to discontinuation: Musculoskeletal discomfort, n subjects", "setting": "human, in vivo, 48 weeks", "value": 0}, {"measurement": "AE leading to discontinuation: Nausea, n subjects", "setting": "human, in vivo, 48 weeks", "value": 0}, {"measurement": "AE leading to discontinuation: Nervous system disorders, n subjects", "setting": "human, in vivo, 48 weeks", "value": 0}, {"measurement": "AE leading to discontinuation: Photophobia, n subjects", "setting": "human, in vivo, 48 weeks", "value": 0}, {"measurement": "AE leading to discontinuation: Psychiatric disorders, n subjects", "setting": "human, in vivo, 48 weeks", "value": 1}, {"measurement": "AE leading to discontinuation: Rash, n subjects", "setting": "human, in vivo, 48 weeks", "value": 0}, {"measurement": "AE leading to discontinuation: Skin and subcutaneous tissue disorders, n subjects", "setting": "human, in vivo, 48 weeks", "value": 0}, {"measurement": "AE leading to discontinuation: Tachyphrenia, n subjects", "setting": "human, in vivo, 48 weeks", "value": 0}, {"measurement": "AE leading to discontinuation: Thinking abnormal, n subjects", "setting": "human, in vivo, 48 weeks", "value": 1}, {"measurement": "AE leading to discontinuation: Tinnitus, n subjects", "setting": "human, in vivo, 48 weeks", "value": 0}, {"measurement": "Any AE leading to discontinuation of study drug, n subjects", "setting": "human, in vivo, 48 weeks", "value": 1}, {"measurement": "Any AE, n subjects", "setting": "human, in vivo, 48 weeks", "value": 99}, {"measurement": "Any Grade 3 AE, n subjects", "setting": "human, in vivo, 48 weeks", "value": 5}, {"measurement": "Any Grade 4 AE, n subjects", "setting": "human, in vivo, 48 weeks", "value": 0}, {"measurement": "Any SAE, n subjects", "setting": "human, in vivo, 48 weeks", "value": 2}, {"measurement": "Grade 3 or 4 AE: Abdominal pain, n subjects", "setting": "human, in vivo, 48 weeks", "value": 1}, {"measurement": "Grade 3 or 4 AE: Blindness unilateral, n subjects", "setting": "human, in vivo, 48 weeks", "value": 1}, {"measurement": "Grade 3 or 4 AE: Corneal infection, n subjects", "setting": "human, in vivo, 48 weeks", "value": 1}, {"measurement": "Grade 3 or 4 AE: Dermatitis allergic, n subjects", "setting": "human, in vivo, 48 weeks", "value": 0}, {"measurement": "Grade 3 or 4 AE: Eye disorders, n subjects", "setting": "human, in vivo, 48 weeks", "value": 1}, {"measurement": "Grade 3 or 4 AE: Gastrointestinal disorders, n subjects", "setting": "human, in vivo, 48 weeks", "value": 1}, {"measurement": "Grade 3 or 4 AE: General disorders and administration site conditions, n subjects", "setting": "human, in vivo, 48 weeks", "value": 1}, {"measurement": "Grade 3 or 4 AE: Infections and infestations, n subjects", "setting": "human, in vivo, 48 weeks", "value": 1}, {"measurement": "Grade 3 or 4 AE: Pyrexia, n subjects", "setting": "human, in vivo, 48 weeks", "value": 1}, {"measurement": "Grade 3 or 4 AE: Skin and subcutaneous tissue disorders, n subjects", "setting": "human, in vivo, 48 weeks", "value": 0}, {"measurement": "Grade 3 or 4 AE: Tinnitus, n subjects", "setting": "human, in vivo, 48 weeks", "value": 0}, {"measurement": "SAE: Blindness unilateral, n subjects", "setting": "human, in vivo, 48 weeks", "value": 1}, {"measurement": "SAE: Corneal infection, n subjects", "setting": "human, in vivo, 48 weeks", "value": 1}, {"measurement": "SAE: Depression, n subjects", "setting": "human, in vivo, 48 weeks", "value": 0}, {"measurement": "SAE: Eye disorders, n subjects", "setting": "human, in vivo, 48 weeks", "value": 1}, {"measurement": "SAE: Gastroenteritis, n subjects", "setting": "human, in vivo, 48 weeks", "value": 1}, {"measurement": "SAE: Infections and infestations, n subjects", "setting": "human, in vivo, 48 weeks", "value": 2}, {"measurement": "SAE: Psychiatric disorders, n subjects", "setting": "human, in vivo, 48 weeks", "value": 0}, {"measurement": "Subjects who experienced a Grade ≥3 AE", "setting": "human, in vivo, 48 weeks", "value": 4, "unit": "%"}, {"measurement": "Subjects with AEs, worst grade severity Grade 4", "setting": "human, in vivo, 48 weeks", "value": 0, "unit": "n"}]}
